Assay results: patent US20250340561A1, “QUINAZOLINE COMPOUND FOR INDUCING DEGRADATION OF G12D MUTANT KRAS PROTEIN” (Astellas Pharma Inc., priority 2021, published 2025)
pIC50: −log10 of the molar value. Where a name gives a salt, the structure may show the parent alone. Read-outs that look alike come from different tables or passages of the source.

Columns and labels:
[1] = system: human G12D mutant KRAS-positive pancreatic cancer line AsPC-1; assay: Test Example 3: non-anchorage-dependent cell growth inhibition, spheroid 3D cell culture; assay type: cell-based; settings: AsPC-1 spheroid 3D culture, 6 days, CellTiter Glo 2.0
Summary of the method: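 AsPC-1 cells were grown as spheroids (5×10^2 cells/well, low-adhesion round-bottom plates). Next day they were treated with compound at 6 final concentrations from 10 μM to 3.0 nM for 6 days at 37 °C, and viability was read by CellTiter Glo luminescence. IC50 came from Sigmoid-Emax nonlinear regression, normalized between DMSO-treated and cell-free wells.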

[2] = system: phosphorylation of ERK (Thr202/Tyr204); assay: Test Example 2: ERK phosphorylation inhibition action in AsPC-1, Cell ELISA; assay type: cell-based, human; settings: AsPC-1 cells, 0% = 1 μM trametinib
Summary of the method: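 AsPC-1 cells (KRAS G12D) treated 24 h with compound (6 points, 10 μM to 3.0 nM final) in RPMI 1640/10% FBS. Fixed with glyoxal; pERK Thr202/Tyr204 detected by In-Cell ELISA with 800 nm fluorescence. IC50 by Sigmoid-Emax regression, with DMSO set to 100% and 1 μM trametinib to 0%.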

[3] = Homo sapiens, ASPC1, 144 h, read-out: IC50
[4] = Homo sapiens, ASPC1, 24 h, read-out: IC50

Compound | pIC50 ([1]; Homo sapiens, ASPC1, 144 h) | pIC50 ([2]; Homo sapiens, ASPC1, 24 h) | further results
Cc1ncsc1-c1ccc([C@H](CO)NC(=O)[C@@H]2C[C@@H](O)CN2C(=O)[C@H](C(C)C)n2cc(-c3ccc(COc4c(-c5c(C)c(F)cc6[nH]ncc56)c(C5CC5)cc5c(N6C[C@@H]7C[C@H]6CN7)nc(NCCO)nc45)cc3)nn2)cc1 [Example 66] |  |  | pIC50 [1, 3]: 6.44; pIC50 [2, 4]: 6.94
Cc1ncsc1-c1ccc([C@H](CO)NC(=O)[C@@H]2C[C@@H](O)CN2C(=O)[C@H](C(C)C)n2cc(-c3ccc(COc4c(-c5c(C)c(F)cc6[nH]ncc56)c(C5CC5)cc5c(N6C[C@@H]7C[C@H]6CN7)nc(OC[C@H](C)N6CCCC6)nc45)cc3)nn2)cc1 [Example 64] | 6.61 | 7.10 | 
CCn1nccc1-c1ccc([C@H](CO)NC(=O)[C@@H]2C[C@@H](O)CN2C(=O)[C@H](C(C)C)n2cc(-c3ccc(COc4c(-c5c(C)c(F)cc6[nH]ncc56)c(C5CC5)cc5c(N6C[C@@H]7C[C@H]6CN7)nc(OC6CCOCC6)nc45)cc3)nn2)cc1 [Example 26] | 7.70 | 8.10 | 
Cc1ncsc1-c1ccc([C@H](CO)NC(=O)[C@@H]2C[C@@H](O)CN2C(=O)[C@H](C(C)C)n2cc(-c3ccc(COc4c(-c5c(C)c(F)cc6[nH]ncc56)c(C5CC5)cc5c(N6C[C@@H]7C[C@H]6CN7)nc(OC6CCOCC6)nc45)cc3)nn2)cc1 [Example 8, (4R)-1-[(2S)-2-(4-{4-[({6-cyclopropyl-4-[(1S,4S)-2,5-diazabicyclo[2.2.1]heptan-2-yl]-7-(6-fluoro-5-methyl-1H-indazol-4-yl)-2-[(oxan-4-yl)oxy]quinazolin-8-yl}oxy)methyl]phenyl}-1H-1,2,3-triazol-1-yl)-3-methylbutanoyl]-4-hydroxy-N-{(1R)-2-hydroxy-1-[4-(4-methyl-1,3-thiazol-5-yl)phenyl]ethyl}-L-prolinamide] |  |  | pIC50 ([1]; read-out: IC50): 7.64; pIC50 ([2]; 24 hours, read-out: IC50): 7.82
CO[C@@H](C)COc1nc(N2C[C@@H]3C[C@H]2CN3)c2cc(C3CC3)c(-c3c(C)c(F)cc4[nH]ncc34)c(OCc3ccc(-c4cn([C@H](C(=O)N5C[C@H](O)C[C@H]5C(=O)N[C@@H](CO)c5ccc(-c6scnc6C)cc5)C(C)C)nn4)cc3)c2n1 [Example 48] | 7.70 | 8.10 | 
CCOc1nc(N2C[C@@H]3C[C@H]2CN3)c2cc(C3CC3)c(-c3c(C)c(F)cc4[nH]ncc34)c(OCc3ccc(C(=O)N[C@H](C(=O)N4C[C@H](O)C[C@H]4C(=O)N[C@@H](CO)c4ccc(-c5scnc5C)cc4)C(C)C)cc3)c2n1 [Example 5] | 6.77 | 7.01 | 
Cc1c(F)cc2[nH]ncc2c1-c1c(C2CC2)cc2c(N3C[C@@H]4C[C@H]3CN4)nc(OC3CCOCC3)nc2c1OCc1ccc(-c2cn([C@H](C(=O)N3C[C@H](O)C[C@H]3C(=O)N[C@@H](CO)c3ccc(-c4scnc4CO)cc3)C(C)C)nn2)cc1 [Example 18, (4R)-1-[(2S)-2-(4-{4-[({6-cyclopropyl-4-[(1S,4S)-2,5-diazabicyclo[2.2.1]heptan-2-yl]-7-(6-fluoro-5-methyl-1H-indazol-4-yl)-2-[(oxan-4-yl)oxy]quinazolin-8-yl}oxy)methyl]phenyl}-1H-1,2,3-triazol-1-yl)-3-methylbutanoyl]-4-hydroxy-N-[(1R)-2-hydroxy-1-{4-[4-(hydroxymethyl)-1,3-thiazol-5-yl]phenyl}ethyl]-L-prolinamide n hydrochloride] |  |  | pIC50 [1, 3]: 7.15; pIC50 [2, 4]: 7.55
Cc1c(F)cc2[nH]ncc2c1-c1c(C2CC2)cc2c(N3C[C@@H]4C[C@H]3CN4)nc(OC3CCOCC3)nc2c1OCc1ccc(-c2cn([C@H](C(=O)N3C[C@H](O)C[C@H]3C(=O)N[C@@H](CO)c3ccccc3)C(C)C)nn2)cc1 (atropisomer, axis not shown) [Example 14] | 6.82 | 7.20 | 
Cc1c(F)cc2[nH]ncc2c1-c1c(C2CC2)cc2c(N3C[C@@H]4C[C@H]3CN4)nc(OC3CCOCC3)nc2c1OCc1ccc(-c2cn([C@H](C(=O)N3C[C@H](O)C[C@H]3C(=O)N[C@@H](CO)c3ccc(-c4ccnn4C)cc3)C(C)C)nn2)cc1 [Example 23] |  |  | pIC50 [1]: 7.68; pIC50 ([2]; 24 hours): 8.00
Cc1ncsc1-c1ccc([C@H](CO)NC(=O)[C@@H]2C[C@@H](O)CN2C(=O)[C@H](C(C)C)n2cc(-c3ccc(COc4c(-c5c(C)c(F)cc6[nH]ncc56)c(C5CC5)cc5c(N6C[C@@H]7C[C@H]6CN7)nc(OC[C@H](C)N6CCOCC6)nc45)cc3)nn2)cc1 [Example 65] | 7.35 | 7.96 | 
Cc1ncsc1-c1ccc([C@H](CO)NC(=O)[C@@H]2C[C@@H](O)CN2C(=O)[C@H](C(C)C)n2cc(-c3ccc(COc4c(-c5c(C)c(F)cc6[nH]ncc56)c(C5CC5)cc5c(N6C[C@@H]7C[C@H]6CN7)nc(OC[C@@H]6CCCN6C)nc45)cc3)nn2)cc1 [Example 57] |  |  | pIC50 [1, 3]: 7.05; pIC50 [2, 4]: 7.19
Cc1ncsc1-c1ccc([C@H](CO)NC(=O)[C@@H]2C[C@@H](O)CN2C(=O)[C@H](C(C)C)n2cc(-c3ccc(COc4c(-c5c(C)c(F)cc6[nH]ncc56)c(C5CC5)cc5c(N6C[C@@H]7C[C@H]6CN7)nc(OC6CCOCC6)nc45)cc3)nn2)nc1 [Example 35] | 7.37 | 7.26 | 
Cc1ncsc1-c1ccc([C@H](CO)NC(=O)[C@@H]2C[C@@H](O)CN2C(=O)[C@H](C(C)C)n2cc(-c3ccc(COc4c(-c5c(C)c(F)cc6[nH]ncc56)c(C5CC5)cc5c(N6C[C@@H]7C[C@H]6CN7)nc(OC[C@H]6CCOC6)nc45)cc3)nn2)cc1 [Example 51] | 7.57 | 7.85 | 
Cc1ncsc1-c1ccc([C@H](CO)NC(=O)[C@@H]2C[C@@H](O)CN2C(=O)[C@H](C(C)C)n2cc(-c3ccc(COc4c(-c5c(C)c(F)cc6[nH]ncc56)c(C5CC5)cc5c(N6C[C@@H]7C[C@H]6CN7)nc(OC[C@H]6CCOC6)nc45)cc3)nn2)cc1 [Example 52] |  |  | pIC50 [1]: 7.51; pIC50 ([2]; 24 hours): 7.96
Cc1ncsc1-c1ccc([C@H](CO)NC(=O)[C@@H]2C[C@@H](O)CN2C(=O)[C@H](C(C)C)n2cc(-c3ccc(COc4c(-c5c(C)c(F)cc6[nH]ncc56)c(C5CC5)cc5c(N6C[C@@H]7C[C@H]6CN7)nc(O[C@H](C)[C@@H](C)O)nc45)cc3)nn2)cc1 (atropisomer, axis not shown) [Example 37] | 7.72 | 7.74 | 
Cc1ncsc1-c1ccc(C2(NC(=O)[C@@H]3C[C@@H](O)CN3C(=O)[C@H](C(C)C)n3cc(-c4ccc(COc5c(-c6c(C)c(F)cc7[nH]ncc67)c(C6CC6)cc6c(N7C[C@@H]8C[C@H]7CN8)nc(OC7CCOCC7)nc56)cc4)nn3)CC2)cc1 [Example 6] | 7.00 | 7.24 | 
COCC1(COc2nc(N3C[C@@H]4C[C@H]3CN4)c3cc(C4CC4)c(-c4c(C)c(F)cc5[nH]ncc45)c(OCc4ccc(-c5cn([C@H](C(=O)N6C[C@H](O)C[C@H]6C(=O)N[C@@H](CO)c6ccc(-c7scnc7C)cc6)C(C)C)nn5)cc4)c3n2)CC1 [Example 62] | 7.47 | 7.82 | 
Cc1ncsc1-c1ccc([C@H](CO)NC(=O)[C@@H]2C[C@@H](O)CN2C(=O)[C@H](C2CC2)n2cc(-c3ccc(COc4c(-c5c(C)c(F)cc6[nH]ncc56)c(C5CC5)cc5c(N6C[C@@H]7C[C@H]6CN7)nc(OC6CCOCC6)nc45)cc3)nn2)cc1 [Example 73] |  |  | pIC50 [1, 3]: 6.95; pIC50 [2, 4]: 6.88
COC[C@H](CN1CCOCC1)Oc1nc(N2C[C@@H]3C[C@H]2CN3)c2cc(C3CC3)c(-c3c(C)c(F)cc4[nH]ncc34)c(OCc3ccc(-c4cn([C@H](C(=O)N5C[C@H](O)C[C@H]5C(=O)N[C@@H](CO)c5ccc(-c6scnc6C)cc5)C(C)C)nn4)cc3)c2n1 [Example 55] |  |  | pIC50 [1, 3]: 7.12; pIC50 [2, 4]: 7.42
